Laboratory results from DBAASP.
Converted amounts (≈) assume the structure as drawn. Values belong to the molecule of their own block, whether it stands above or below them.

Legend:
Test in all cases: ≥ marks a high value that may be exact or a test limit, other limits are often not marked, values filed in µg/mL are converted to µM
[1] = test system: Escherichia coli ATCC 25922
[2] = test system: Pseudomonas aeruginosa ATCC 9027
[3] = test system: Bacillus subtilis ATCC 23857
[4] = test system: Klebsiella pneumoniae ATCC 700603
[5] = test system: Staphylococcus aureus ATCC 25923
[6] = test system: Staphylococcus aureus NCTC 10788
[7] = test system: Staphylococcus aureus NCTC 8325
[8] = test system: Staphylococcus aureus USA 300
[9] = test system: Candida albicans ATCC 90028
Bacillus subtilis 168 = test system: Bacillus subtilis 168
Staphylococcus aureus = test system: Staphylococcus aureus
Micrococcus luteus = test system: Micrococcus luteus
[10] = test system: Pseudomonas aeruginosa PAO1
[11] = test system: Klebsiella pneumoniae ATCC 13883
Escherichia coli = test system: Escherichia coli

- MIC [1]: 64 µM (≈ 84.7 µg/mL)
- MIC [3]: 8 µM (≈ 10.6 µg/mL)
Compound: CC[C@H](C)[C@H](NC(=O)CN)C(=O)N[C@H](C(=O)N[C@@H](CCCCN)C(=O)NCC(=O)N[C@H](C(=O)N[C@H](C(=O)N[C@@H](CCCCN)C(=O)N[C@@H](CCCCN)C(=O)N[C@H](C(=O)N[C@H](C(=O)N[C@@H](CCCCN)C(N)=O)[C@@H](C)CC)[C@@H](C)CC)[C@@H](C)CC)[C@@H](C)CC)[C@@H](C)CC [GIIKGIIKKIIK]

- MIC [1]: 13 µM (≈ 38.9 µg/mL)
- MIC [9]: ≥ 100 µM
- MIC [7]: ≥ 100 µM
Compound: CC[C@H](C)[C@H](NC(=O)[C@H](CCCCN)NC(=O)[C@H](CC(=O)O)NC(=O)[C@H](CC(C)C)NC(=O)[C@H](C)NC(=O)[C@H](CO)NC(=O)[C@H](C)NC(=O)[C@H](CC(C)C)NC(=O)[C@H](CC(C)C)NC(=O)[C@H](CC(N)=O)NC(=O)[C@H](CCCCN)NC(=O)[C@H](C)NC(=O)[C@H](C)NC(=O)CNC(=O)[C@H](CCCCN)NC(=O)[C@H](Cc1ccccc1)NC(=O)[C@@H](NC(=O)[C@H](CC(=O)O)NC(=O)[C@H](CCSC)NC(=O)[C@H](CC(C)C)NC(=O)CN)C(C)C)C(=O)N[C@@H](CCCN=C(N)N)C(=O)N[C@H]1CSSC[C@@H](C(=O)O)NC(=O)[C@H](CCCCN)NC(=O)[C@H]([C@@H](C)O)NC(=O)[C@H](C(C)C)NC(=O)[C@H](CCCCN)NC1=O [GLMDVFKGAAKNLLASALDKIRCKVTKC]

- MIC [1]: > 25 µM
- MIC [10]: > 25 µM
- MIC [11]: 25 µM (≈ 33.5 µg/mL)
- MIC [8]: 1.6 µM (≈ 2.14 µg/mL)
Compound: CC(C)C[C@H](NC(=O)[C@H](CC(C)C)NC(=O)[C@H](CCCCN)NC(=O)CNC(=O)[C@H](CC(C)C)NC(=O)[C@H](CC(C)C)NC(=O)[C@H](CO)NC(=O)[C@H](CC(C)C)NC(=O)[C@H](CC(C)C)NC(=O)[C@H](CC(C)C)NC(=O)[C@H](CO)NC(=O)[C@H](CC(C)C)NC(=O)CN)C(N)=O [GLSLLLSLLGKLL]

- MIC (Escherichia coli): 8 µM (≈ 11.7 µg/mL)
- MIC [3]: 8 µM (≈ 11.7 µg/mL)
- MIC [4]: 16 µM (≈ 23.4 µg/mL)
- MIC [5]: 16 µM (≈ 23.4 µg/mL)
Compound: CC[C@H](C)[C@H](NC(=O)[C@H](CCCCN)NC(=O)[C@H](CCCCN)NC(=O)[C@H](C)NC(=O)[C@@H](NC(=O)[C@H](C)NC(=O)[C@H](C)NC(=O)[C@H](CC(C)C)NC(=O)[C@H](C)NC(=O)[C@H](CCCCN)NC(=O)[C@H](CC(C)C)NC(=O)[C@H](CC(N)=O)NC(=O)[C@@H](N)CC(C)C)C(C)C)C(=O)N[C@@H](CC(C)C)C(N)=O [LNLKALAAVAKKIL]

The remaining lines, values behind:

Compound: CC[C@H](C)[C@H](NC(=O)[C@H](CCCN=C(N)N)NC(=O)[C@H](CCCN=C(N)N)NC(=O)[C@H](C)NC(=O)[C@@H](NC(=O)[C@H](C)NC(=O)[C@H](CC(C)C)NC(=O)[C@H](CC(C)C)NC(=O)[C@H](C)NC(=O)[C@H](CCCN=C(N)N)NC(=O)[C@H](CC(C)C)NC(=O)[C@H](CC(N)=O)NC(=O)[C@@H](N)CC(C)C)C(C)C)C(=O)N[C@@H](CC(C)C)C(N)=O [LNLRALLAVARRIL]
- MIC [1]: 4 µM (≈ 6.36 µg/mL)
- MIC [2]: 8 µM (≈ 12.7 µg/mL)
- MIC [3]: 4 µM (≈ 6.36 µg/mL)
- MIC [4]: 16 µM (≈ 25.5 µg/mL)
- MIC [5]: 4 µM (≈ 6.36 µg/mL)

Compound: CC[C@H](C)[C@H](NC(=O)[C@@H](NC(=O)[C@@H]1CCCN1C(=O)[C@H](CC(C)C)NC(=O)[C@@H](N)Cc1ccccc1)C(C)C)C(=O)N[C@@H](C)C(=O)NCC(=O)N[C@@H](CC(C)C)C(=O)N[C@@H](CC(C)C)C(=O)N[C@@H](CO)C(=O)N[C@@H](CCCCN)C(=O)N[C@@H](CC(C)C)C(=O)N[C@@H](Cc1ccccc1)C(N)=O [FLPVIAGLLSKLF]
- MIC [6]: 8 µM (≈ 11.3 µg/mL)
- MIC [7]: 8 µM (≈ 11.3 µg/mL)

Compound: CC[C@H](C)[C@H](NC(=O)[C@H](C)NC(=O)[C@H](CCCCN)NC(=O)[C@H](C)N)C(=O)N[C@H](C(=O)N[C@@H](CCCN=C(N)N)C(=O)N[C@H](C(=O)N[C@H](C(=O)N[C@@H](CCC(=O)O)C(=O)N[C@@H](CCC(N)=O)C(=O)N[C@@H](C)C(=O)N1CCC[C@H]1C(=O)N[C@@H](CCCCN)C(=O)N[C@H](C(=O)N[C@@H](C)C(=O)N[C@@H](CCCCN)C(=O)N[C@@H](C)C(=O)N[C@@H](CCCCN)C(=O)N[C@@H](CCCCN)C(=O)N[C@@H](CO)C(=O)O)[C@@H](C)O)[C@@H](C)CC)[C@@H](C)O)C(C)C [AKAIVRTIEQAPKTAKAKKS]
- MIC [8]: ≥ 128 µM

Compound: CC[C@H](C)[C@H](NC(=O)[C@H](CCCCN)NC(=O)CNC(=O)[C@H](Cc1ccccc1)NC(=O)[C@H](CC(C)C)NC(=O)CN)C(=O)N[C@@H](CC(C)C)C(=O)NCC(=O)N[C@H](C(=O)NCC(=O)N[C@@H](CCCCN)C(=O)N[C@@H](CCCCN)C(=O)N[C@H](C(=O)N[C@@H](CC(C)C)C(=O)N[C@H]1CSSC[C@@H](C(=O)O)NC(=O)[C@H](CCSC)NC(=O)CNC(=O)[C@H](CO)NC(=O)[C@H](CC(C)C)NC(=O)CNC1=O)C(C)C)C(C)C [GLFGKILGVGKKVLCGLSGMC]
- MIC [1]: 3 µM (≈ 6.24 µg/mL)
- MIC [9]: ≥ 50 µM
- MIC [7]: 12.5 µM (≈ 26 µg/mL)

Compound: CC(C)C[C@H](NC(=O)[C@H](CC(=O)O)NC(=O)[C@H](CC(N)=O)NC(=O)[C@H](C)NC(=O)[C@H](CC(N)=O)NC(=O)[C@H](CC(=O)O)NC(=O)[C@@H](N)C(C)C)C(=O)N[C@@H](CC(C)C)C(=O)N[C@@H](CO)C(=O)N[C@@H](CCCCN)C(=O)N[C@H](C(=O)N[C@@H](CCCCN)C(=O)N[C@@H](CCCCN)C(=O)N[C@@H](CC(=O)O)C(=O)N[C@@H](CCCCN)C(=O)N[C@@H](CO)C(=O)N[C@@H](CC(=O)O)C(=O)O)C(C)C [VDNANDLLSKVKKDKSD]
- MIC [1]: 4.39 µM (≈ 8.3 µg/mL)
- MIC (Bacillus subtilis 168): 1.11 µM (≈ 2.1 µg/mL)
- MIC (Staphylococcus aureus): 8.26 µM (≈ 15.6 µg/mL)
- MIC (Micrococcus luteus): 4.39 µM (≈ 8.3 µg/mL)

Compound: CC[C@H](C)[C@H](NC(=O)CNC(=O)[C@H](C)NC(=O)[C@@H](NC(=O)[C@@H](NC(=O)CN)[C@@H](C)CC)[C@@H](C)CC)C(=O)N[C@@H](C)C(=O)N[C@H](C(=O)N[C@@H](CCCCN)C(=O)N[C@H](C(=O)N[C@@H](CCCCN)C(=O)N[C@@H](CCCCN)C(N)=O)[C@@H](C)CC)[C@@H](C)CC [GIIAGIAIKIKK]
- MIC [1]: 64 µM (≈ 78.3 µg/mL)
- MIC [3]: ≥ 32 µM

Compound: CC[C@H](C)[C@H](NC(=O)CN)C(=O)N[C@@H](Cc1ccccc1)C(=O)N[C@@H](CC(N)=O)C(=O)N[C@H](C(=O)N[C@@H](Cc1ccccc1)C(=O)N[C@@H](CCCCN)C(=O)NCC(=O)N[C@@H](C)C(=O)N[C@@H](CC(C)C)C(=O)N[C@@H](CCCCN)C(=O)N[C@H](C(=O)N[C@@H](C)C(=O)NCC(=O)N[C@@H](CCCCN)C(=O)N[C@@H](Cc1cnc[nH]1)C(=O)N[C@H](C(=O)N[C@@H](C)C(=O)NCC(=O)N[C@@H](CO)C(=O)N[C@@H](CC(C)C)C(=O)N[C@@H](CC(C)C)C(=O)N[C@@H](CC(N)=O)C(=O)N[C@@H](CCC(N)=O)C(=O)N[C@@H](CC(C)C)C(=O)N[C@@H](CCCCN)C(=O)N[C@H]1CSSC[C@@H](C(=O)O)NC(=O)[C@H](CCC(=O)O)NC(=O)CNC(=O)[C@H](CO)NC(=O)[C@H](C(C)C)NC(=O)[C@H](CCCCN)NC1=O)C(C)C)[C@@H](C)O)C(C)C [GIFNVFKGALKTAGKHVAGSLLNQLKCKVSGEC]
- MIC [1]: 4 µM (≈ 13.7 µg/mL)
- MIC [9]: ≥ 40 µM
- MIC [7]: 9 µM (≈ 30.8 µg/mL)

Compound: CC[C@H](C)[C@H](NC(=O)CNC(=O)[C@H](CC(C)C)NC(=O)[C@H](CO)NC(=O)[C@H](CCC(=O)O)NC(=O)[C@H](CCSC)NC(=O)[C@H](CCCCN)NC(=O)[C@H](C)NC(=O)[C@H](CCCCN)NC(=O)[C@H](CC(=O)O)NC(=O)[C@@H](NC(=O)[C@@H](N)C(C)C)[C@@H](C)CC)C(=O)N[C@H](C(=O)N[C@@H](CO)C(=O)N[C@@H](CCCN=C(N)N)C(=O)N[C@@H](CC(=O)O)C(=O)N[C@H](C(=O)N[C@H](C(=O)O)[C@@H](C)O)[C@@H](C)O)[C@@H](C)O [VIDKAKMESLGITSRDTT]
- MIC [1]: 15.9 µM (≈ 31.2 µg/mL)
- MIC (Bacillus subtilis 168): 7.94 µM (≈ 15.6 µg/mL)
- MIC (Staphylococcus aureus): 15.9 µM (≈ 31.2 µg/mL)
- MIC (Micrococcus luteus): 7.94 µM (≈ 15.6 µg/mL)
